Experiments:
Test in all cases: MTT assay panel
Assay type in all cases: cell-based
3T3 = settings: Mus musculus, NIH3T3; 3T3 cells, 72 hours
Experimental: (§1) Compound 124 was further tested against a panel of selected solid and hematological cancer cell lines and selected normal cell lines in an MTT assay. Briefly, the various cell lines above were plated at different densities on day 1. […] Cell Titer AQueous One was added to each well, and the plates were read in a plate reader at OD 495.

AML-193 = AML-193 cells, 72 hours
Experimental: as §1

C6 = settings: Rattus norvegicus; C6 cells, 72 hours
Experimental: as §1

Calu-6 = settings: Homo sapiens; Calu-6 cells, 72 hours
Experimental: as §1

Colo-201 = settings: Homo sapiens; Colo-201 cells, 72 hours
Experimental: as §1

DB = settings: Homo sapiens; DB cells, 72 hours
Experimental: as §1

Daudi = settings: Homo sapiens; Daudi cells, 72 hours
Experimental: as §1

Farage = Farage cells, 72 hours
Experimental: as §1

HCT-15 = settings: Homo sapiens; HCT-15 cells, 72 hours
Experimental: as §1

HCT116.1 = HCT116.1 cells, 72 hours
Experimental: as §1

HEL.92.1.7 = settings: Homo sapiens; HEL.92.1.7 cells, 72 hours
Experimental: as §1

HPAF-II = settings: Homo sapiens; HPAF-II cells, 72 hours
Experimental: as §1

HS-Sultan = HS-Sultan cells, 72 hours
Experimental: as §1

HTB-38 = HTB-38 cells, 72 hours
Experimental: as §1

HeLa = settings: Homo sapiens; HeLa cells, 72 hours
Experimental: as §1

IMR-90 = settings: Homo sapiens; IMR-90 cells, 72 hours
Experimental: as §1

KG-1 = settings: Homo sapiens; KG-1 cells, 72 hours
Experimental: as §1

LN18 = settings: Homo sapiens, LN-18; LN18 cells, 72 hours
Experimental: as §1

LoVo = settings: Homo sapiens; LoVo cells, 72 hours
Experimental: as §1

MDA-MB-361 = settings: Homo sapiens; MDA-MB-361 cells, 72 hours
Experimental: as §1

MHCC97H = settings: Homo sapiens; MHCC97H cells, 72 hours
Experimental: as §1

MINO = settings: Homo sapiens; MINO cells, 72 hours
Experimental: as §1

MO7e = MO7e cells, 72 hours
Experimental: as §1

MV-4-11 = settings: Homo sapiens, MV4-11; MV-4-11 cells, 72 hours
Experimental: as §1

NCI-H1299 = settings: Homo sapiens; NCI-H1299 cells, 72 hours
Experimental: as §1

NCI-H2030 = settings: Homo sapiens; NCI-H2030 cells, 72 hours
Experimental: as §1

NCI-H747 = settings: Homo sapiens; NCI-H747 cells, 72 hours
Experimental: as §1

NCI-H820 = NCI-H820 cells, 72 hours
Experimental: as §1

NCI-H889 = settings: Homo sapiens; NCI-H889 cells, 72 hours
Experimental: as §1

PANC-10.05 = settings: Homo sapiens, Panc1005; PANC-10.05 cells, 72 hours
Experimental: as §1

PATU-8988S = PATU-8988S cells, 72 hours
Experimental: as §1

PATU-8988T = settings: Homo sapiens; PATU-8988T cells, 72 hours
Experimental: as §1

SHP-77 = settings: Homo sapiens, SHP77; SHP-77 cells, 72 hours
Experimental: as §1

SHSY5Y = settings: Homo sapiens, SH-SY5Y; SHSY5Y cells, 72 hours
Experimental: as §1

SW-1417 = settings: Homo sapiens, SW1417; SW-1417 cells, 72 hours
Experimental: as §1

SW-480 = settings: Homo sapiens, SW480; SW-480 cells, 72 hours
Experimental: as §1

SW-620 = settings: Homo sapiens; SW-620 cells, 72 hours
Experimental: as §1

TF-1 = settings: Homo sapiens; TF-1 cells, 72 hours
Experimental: as §1

TFK-1 = TFK-1 cells, 72 hours
Experimental: as §1

Z-138 = settings: Homo sapiens; Z-138 cells, 72 hours
Experimental: as §1

- IC50 (Calu-6): 1270 nM
- IC50 (Colo-201): > 10000 nM
- IC50 (Daudi): 8 nM
- IC50 (HCT-15): 460 nM
- IC50 (HCT116.1): 200 nM
- IC50 (HeLa): 1050 nM
- IC50 (LoVo): 680 nM
- IC50 (MDA-MB-361): > 10000 nM
- IC50 (MV-4-11): 100 nM
- IC50 (NCI-H1299): 50 nM
- IC50 (NCI-H2030): 2050 nM
- IC50 (NCI-H747): 70 nM
- IC50 (NCI-H820): 3400 nM
- IC50 (NCI-H889): 1020 nM
- IC50 (PANC-10.05): 990 nM
- IC50 (SHSY5Y): 50 nM
- IC50 (SW-1417): > 10000 nM
- IC50 (SW-480): 10000 nM
- IC50 (SW-620): 420 nM
SMILES: NC(=O)/C(=C/n1cnc(-c2cc(C(F)(F)F)cc(C(F)(F)F)c2)n1)c1cncnc1 [Compound 124, (E)-3-(3-(3,5-bis(trifluoromethyl)phenyl)-1H-1,2,4-triazol-1-yl)-2-(pyrimidin-5-yl)acrylamide]
- IC50 (3T3): 1100 nM
- IC50 (AML-193): 1930 nM
- IC50 (C6): 150 nM
- IC50 (DB): 60 nM
- IC50 (Farage): 460 nM
- IC50 (HEL.92.1.7): 230 nM
- IC50 (HPAF-II): > 10000 nM
- IC50 (HS-Sultan): 60 nM
- IC50 (HTB-38): > 10000 nM
- IC50 (IMR-90): > 10000 nM
- IC50 (KG-1): 90 nM
- IC50 (LN18): 2060 nM
- IC50 (MHCC97H): > 10000 nM
- IC50 (MINO): 20 nM
- IC50 (MO7e): 20 nM
- IC50 (PATU-8988S): 10000 nM
- IC50 (PATU-8988T): 7170 nM
- IC50 (SHP-77): 410 nM
- IC50 (TF-1): 110 nM
- IC50 (TFK-1): > 10000 nM
- IC50 (Z-138): 6 nM
